Results reported in patent US20180163179A1, “METHOD FOR IMPROVEMENT OF DRUG METABOLISM OF HUMAN STEM CELL-DERIVED HEPATOCYTES” (KOREA ADVANCED INSTITUTE OF SCIENCE AND TECHNOLOGY, priority 2015, published 2018).

Experiments:
[1] = system: human embryonic stem cell-derived hepatocytes (hES-Hep); conditions: hES-Hep treated with alcohol, real-time PCR, FIG. 3
Procedure: Particularly, total RNA was extracted from the adult Hep, Fetal-Hep, and human embryonic stem cell-derived hepatocytes by using Trizol reagent (Invitrogen), followed by cDNA synthesis by using amfi-rivert II cDNA synthesis Master Mix (Gendepot) according to the manufacturer's protocol. Genes in interest were amplified from the transcript by using the primers listed in the Table 1 below by using SYBR green real-time PCR master mix (Toyobo, Japan). The real-time PCR was performed by using Bio-rad CFX96 real-time PCR detection system (Bio-rad). The gene expression level was calculated by ΔΔCt method and by using β-actin as a denominator of the gene expression. Compared with the control gene expression, the obtained value was presented as fold change.

[2] = system: human embryonic stem cell-derived hepatocytes (hES-Hep); conditions: hES-Hep treated with alcohol (200 mM ethanol, 24 hours), without co-culture, FIG. 6
Procedure: 2×10^5 mouse hepatic stellate cells were cultured on the plate (Corning, USA) with 8 μm holes coated with human embryonic stem cell-derived hepatocytes cultured in DMEM supplemented with 10% FBS. The cell ratio of mouse hepatic stellate cells to human embryonic stem cell-derived hepatocytes was maintained as 1:2. […] 48 hours later, the cells and the medium were collected (FIG. 4).
Human embryonic stem cell-derived hepatocytes were co-cultured with mouse hepatic stellate cells. Then, TUNEL assay was performed to investigate apoptosis therein.
Apoptosis was investigated by using In Situ Cell Death Detection Kit (Fluorescence, Roche). Nucleus of the cell was stained with DAPI, followed by visualization using Leica DMI 4000B automatic vertical microscope system (Germany) equipped with Leica EL6000 and Leica CTR 4000 CCD camera. Computer assisted images were analyzed with Leica Application Suite Advanced Fluorescence (LAS AF, Leica).

[3] = system: human embryonic stem cell-derived hepatocytes (hES-Hep); experiment: Immunocytochemistry (immunofluorescence) of CYP2E1 after the treatment of retinoic acid; type: cell-based; conditions: 1 ump all-trans retinoic acid and 0.2 M EtOH, culture 24 hours, anti-CYP2E1 antibody, FIG. 18
Procedure: Human embryonic stem cell-derived hepatocytes were treated with retinoic acid, followed by immunofluorescence in order to examine the expression of CYP2E1, the alcohol metabolism associated enzyme.
Particularly, the human embryonic stem cell-derived hepatocytes differentiated by the same manner as described in Example 1 were treated with 1 ump all-trans retinoic acid and 0.2 M EtOH, followed by culture for 24 hours. The cells were fixed with 4% paraformaldehyde. […] Blocking was performed by treating the cells with 5% goat serum at 37° C. for 1 hour. The cells were stained with anti-CYP2E1 antibody (Millipore, Germany).

[4] = system: human embryonic stem cell-derived hepatocytes (hES-Hep); experiment: Gene expression (real time PCR) after the treatment of retinoic acid; type: cell-based; conditions: 1 ump all-trans retinoic acid or 9-cis-retinoic acid, culture 12~24 hours, FIG. 16
Procedure: Human embryonic stem cell-derived hepatocytes were treated with retinoic acid, followed by investigation of the gene expressions of alcohol metabolism associated enzymes, drug metabolism associated enzymes, and anti-oxidant enzymes.
Particularly, the human embryonic stem cell-derived hepatocytes differentiated by the same manner as described in Example 1 were treated with 1 ump all-trans retinoic acid or 9-cis-retinoic acid, followed by culture for 12˜24 hours. Then, real time PCR was performed by the same manner as described in Experimental Example <1˜3> in order to examine the expressions of alcohol metabolism associated enzymes (AHD1a, ADH1b, ADH1c, and CYP2E1), drug metabolism associated enzymes (CYP2C9, CYP2D6, and CYP3A4), and anti-oxidant enzymes (catalase and Mn-SOD).

[5] = system: human embryonic stem cell-derived hepatocytes (hES-Hep); experiment: Gene expression (real time PCR) after the treatment of retinoic acid and ethanol; type: cell-based; conditions: 1 ump all-trans retinoic acid and 0.2 M EtOH, culture 24 hours, FIG. 17
Procedure: Human embryonic stem cell-derived hepatocytes were treated with retinoic acid and ethanol, followed by investigation of the gene expressions of alcohol metabolism associated enzymes, drug metabolism associated enzymes, and anti-oxidant enzymes.
Particularly, the human embryonic stem cell-derived hepatocytes differentiated by the same manner as described in Example 1 were treated with 1 ump all-trans retinoic acid and 0.2 M EtOH, followed by culture for 24 hours. Then, real time PCR was performed by the same manner as described in Experimental Example <1-3> in order to examine the expressions of alcohol metabolism associated enzymes (AHD1a, ADH1b, ADH1c, and CYP2E1) and anti-oxidant enzymes (catalase and Mn-SOD).

Structure (SMILES) | expression of alcohol metabolism associated enzymes [1] | apoptosis (TUNEL) [2] | expression of CYP2E1 (immunofluorescence) [3] | expressions of alcohol metabolism associated enzymes (AHD1a, ADH1b, ADH1c, CYP2E1), drug metabolism associated enzymes (CYP2C9, CYP2D6, CYP3A4) and anti-oxidant enzymes (catalase, Mn-SOD) [4] | expressions of alcohol metabolism associated enzymes (AHD1a, ADH1b, ADH1c, CYP2E1) and anti-oxidant enzymes (catalase, Mn-SOD) [5]
CCO [alcohol, ethanol] | up-regulated | increased | – | – | –
CC1=C(/C=C/C(C)=C/C=C/C(C)=C/C(=O)O)C(C)(C)CCC1 [retinoic acid] | – | – | significantly increased | all increased | all increased
